Values of other authors, collected in PubChem BioAssay AID1259410 (Chemical Carcinogenesis Research Information System (CCRIS), 2018).

System: rodent tumor promotion studies, tumor incidence
Experiment: CCRIS tumor promotion studies

Compound: Oc1ccc2c(c1)CCCC2
- outcome (Carcinogen: 7,12-DIMETHYLBENZ(A)ANTHRACENE, Doses [Carcinogen]: TOP, Route [Carcinogen]: DERMAL, Route [Promoter]: DERMAL, Species: MOUSE, Strain/Sex: FEMALE): integumentary system (skin)

Compound: COc1cc([C@@H]2Oc3cc([C@H]4Oc5cc(O)cc(O)c5C(=O)[C@@H]4O)ccc3O[C@H]2CO)ccc1O
- outcome (Carcinogen: 1-Methyl-1-nitrosourea, 684-93-5, Doses [Carcinogen]: 50 mg/lg once 30 days after initial silymarin dose, Doses [Promoter]: 0, 0.03, 0.1, 0.3, 1% (w/w) in diet for 140 d beginning at 21 d of age, Doses [Promoter]: 0, 0.03, 0.1, 0.3, 1% (w/w) in diet for 140 d beginning at 21 d of age, Route [Carcinogen]: Intraperitoneal, Route [Promoter]: Oral, Species: Rat, Strain/Sex: Sprague-Dawley/Female (30/27), (30/25), (30/27), (30/23), Strain/Sex: Sprague-Dawley/Female (30/27), (30/25), (30/27), (30/23)): mammary gland: tumors. silymarin demonstrated a slight enhancement of mammary ca

Compound: Cc1c(C)c2c(c(C)c1O)CCC(C)(CCCC(C)CCCC(C)CCCC(C)C)O2 (centres undefined)
- outcome (Carcinogen: 7,12-DIMETHYLBENZ[A]ANTHRACENE, 57-97-6, Doses [Carcinogen]: 10 NMOL IN 0.2 ML ACETONE ONCE, Doses [Promoter]: 0, 80 UMOL IN 0.2 ML ACETONE 2/WK BEGINNING 1 WK POST CARCINOGEN DOSE AND CONTINUING FOR 19 WK (STUDY DURATION: 20 WK), Route [Carcinogen]: DERMAL, Route [Promoter]: DERMAL, Species: MOUSE, Strain/Sex: SENCAR/FEMALE): skin: papilloma

Compound: COc1ccc(O)cc1
- outcome (Carcinogen: DIETHYLNITROSAMINE, 55-18-5, N-METHYLNITROSOUREA, 684-93-5, 1,2-DIMETHYLHYDRAZINE, 540-73-8, N-BUTYL-N-(4-HYDROXYBUTYL)N, Carcinogen: DIETHYLNITROSAMINE, 55-18-5, N-METHYLNITROSOUREA, 684-93-5, 1,2-DIMETHYLHYDRAZINE, 540-73-8, N-BUTYL-N-(4-HYDROXYBUTYL)N, Doses [Carcinogen]: 100 MG/KG BW DEN ONCE FOLLOWED BY 20 MG/KG BW MNU 2/WK FOR 2 WK THEN 40 MG/KG BW DMH 2/WK FOR THE NEXT 2 WK, 0.05% BBN I, Doses [Promoter]: 0, 0.4% IN DIET FOR 24 WK BEGINNING POST CARCINOGEN TREATMENT (STUDY DURATION: 28 WK), Route [Carcinogen]: INTRAPERITONEAL, INTRAPERITONEAL, SUBCUTANEOUS, ORAL, Route [Carcinogen]: INTRAPERITONEAL, INTRAPERITONEAL, SUBCUTANEOUS, ORAL, Route [Promoter]: ORAL, Species: RAT, Strain/Sex: F344/MALE): forestomach: papilloma

Compound: Nc1ncn([C@@H]2O[C@H](CO)[C@@H](O)[C@H]2O)c(=O)n1
- outcome (Carcinogen: DIETHYLNITROSAMINE, 55-18-5, Doses [Carcinogen]: 50 MG/KG IN SALINE ADMINISTERED ONCE 18 HR AFTER PARTIAL HEPATECTOMY, Doses [Promoter]: 0, 2.5, 10 MG/KG 2/WK FOR 9 MO BEGINNING POST CARCINOGEN DOSE (STUDY DURATION: 18 MO), Doses [Promoter]: 0, 2.5, 10 MG/KG 2/WK FOR 9 MO BEGINNING POST CARCINOGEN DOSE (STUDY DURATION: 18 MO), Route [Promoter]: INTRAPERITONEAL, Species: RAT, Strain/Sex: F344/MALE): liver: hepatocellular carcinoma
- outcome (Carcinogen: DIETHYLNITROSAMINE, 55-18-5, Doses [Carcinogen]: 80 MG/KG 1/WK FOR 5 WK, Doses [Promoter]: 0, 5, 10 MG/KG INJECTED 4, 24, AND 48 HR AFTER EACH CARCINOGEN EXPOSURE (STUDY DURATION: 6 MO), Doses [Promoter]: 0, 5, 10 MG/KG INJECTED 4, 24, AND 48 HR AFTER EACH CARCINOGEN EXPOSURE (STUDY DURATION: 6 MO), Route [Carcinogen]: INTRAPERITONEAL, Route [Promoter]: INTRAPERITONEAL, Species: RAT, Strain/Sex: BD6/MALE): liver: tumor

Compound: Cc1c(N(C)CS(=O)(=O)O)c(=O)n(-c2ccccc2)n1C
- outcome (Carcinogen: DIETHYLNITROSAMINE, 55-18-5, Doses [Carcinogen]: 0.O1% IN DRINKING WATER FOR 2 WK, Doses [Promoter]: 0.4% IN DRINKING WATER 5 D/ WK FOR 72 WK BEGINNING 1 WK POST CARCINOGEN (STUDY DURATION: 83 WK), Route [Carcinogen]: ORAL, Route [Promoter]: ORAL, Species: RAT, Strain/Sex: F344/MALE): liver neoplastic nodule, hepatocellular carcinoma ; kidney: adenoma

Compound: c1ccc2c(c1)cc1ccc3cccc4ccc2c1c34
- outcome (Carcinogen: BENZO[A]PYRENE [50-32-8], Doses [Carcinogen]: 8 MMOL/MOUSE 3X/WK FOR 25 WKS (STUDY DURATION: 30 WKS), Doses [Promoter]: UVA 40 KJ/M2 FOR 25 WKS 2 HR AFTER CARCINOGEN TREATMENT (STUDY DURATION: 30 WKS), Route [Carcinogen]: DERMAL, Route [Promoter]: IRRADIATION TO SKIN, Species: MOUSE, Strain/Sex: SKH-1/FEMALE (20/GROUP)): skin: tumor incidence and multiplicity increased

Compound: C[S-].C[S-].N#[O+].N#[O+].N#[O+].N#[O+].[Fe].[Fe]
- outcome (Carcinogen: 7,12-DIMETHYLBENZ[A]ANTHRACENE, 57-97-6, Doses [Carcinogen]: 100 NMOL IN 0.2 ML ACETONE ONCE, Doses [Promoter]: 300 NMOL 2/WK FOR 37 WK (STUDY DURATION: 37 WK), Route [Carcinogen]: DERMAL, Route [Promoter]: DERMAL, Species: MOUSE, Strain/Sex: BALB/FEMALE): skin: papilloma or carcinoma
- outcome (Carcinogen: 7,12-DIMETHYLBENZ[A]ANTHRACENE, 57-97-6, Doses [Carcinogen]: 100 NMOL IN 0.2 ML ACETONE ONCE, Doses [Promoter]: 450 NMOL 2/WK FOR 37 WK (STUDY DURATION: 37 WK), Route [Carcinogen]: DERMAL, Route [Promoter]: DERMAL, Species: MOUSE, Strain/Sex: BALB/FEMALE): skin: papilloma or carcinoma
- outcome (Carcinogen: DIETHYLNITROSAMINE, 55-18-5, Doses [Carcinogen]: 25 MG/WK FOR 2 WK, Doses [Promoter]: 6 MG 2/WK FOR 114-669 D BEGINNING 2 WK POST LAST CARCINOGEN DOSE (STUDY DURATION: 669 D), Route [Carcinogen]: GAVAGE, Route [Promoter]: GAVAGE, Species: RAT, Strain/Sex: WISTAR): forestomach: papilloma

Compound: O=[As]O
- outcome (Carcinogen: UV RADIATION 3X A WK FOR 6 MO STARTING 3 WKS AFTER ARSENITE, Doses [Promoter]: 5.0 MG/L STARTING AT 3 WKS OF AGE (STUDY DURATION: 28 WKS), Route [Carcinogen]: DERMAL, Route [Promoter]: DRINKING WATER, Species: MOUSE, Strain/Sex: CRL:SK1-HRBD (HAIRLESS)/FEMALE): skin: 3.6 tumors/mouse uv alone; 7.0 tumors/mouse uv and arsenite
- outcome (Carcinogen: UV-B IRRADIATION (WESTINGHOUSE SOLAR FS-20 LAMP 85% IN 290-320 NM RANGE), Doses [Carcinogen]: 1.7 KJ/SQ M 3/WK FOR 182 D BEGINNING 3 WK POST PROMOTER FIRST DOSE, Doses [Promoter]: 0, 10 MG/L IN DRINKING WATER BEGINNING AT 21 D AFTER BIRTH (STUDY DURATION: 203 D), Route [Carcinogen]: DERMAL, Route [Promoter]: ORAL, Species: MOUSE, Strain/Sex: SKH/FEMALE): skin: squamous cell carcinoma

Compound: CCCCC(CC)COC(=O)c1ccccc1C(=O)OCC(CC)CCCC (centres undefined)
- outcome (Carcinogen: DIETHYLNITROSAMINE [55-18-5], Doses [Carcinogen]: 200 MG/KG BW ONCE (STUDY DURATION: 48 WK), Doses [Promoter]: 0, 30, 300, 3000, 12000 PPM IN DIET FOR 46 WK BEGINNING 2 WK POST CARCINOGEN DOSE AND 1 WK PRIOR TO 2/3 PARTIAL HEPATECT, Doses [Promoter]: 0, 30, 300, 3000, 12000 PPM IN DIET FOR 46 WK BEGINNING 2 WK POST CARCINOGEN DOSE AND 1 WK PRIOR TO 2/3 PARTIAL HEPATECT, Route [Carcinogen]: INTRAPERITONEAL, Route [Promoter]: ORAL, Species: RAT, Strain/Sex: F344/MALE): liver: hepatocellular adenoma
- outcome (Carcinogen: DIETHYLNITROSAMINE [55-18-5], Doses [Carcinogen]: 200 MG/KG BW ONCE (STUDY DURATION: 52 WK), Doses [Promoter]: 0, 30, 300, 3000, 12000 PPM IN DIET FOR 46 WK BEGINNING 2 WK POST CARCINOGEN DOSE AND 1 WK PRIOR TO 2/3 PARTIAL HEPATECT, Doses [Promoter]: 0, 30, 300, 3000, 12000 PPM IN DIET FOR 46 WK BEGINNING 2 WK POST CARCINOGEN DOSE AND 1 WK PRIOR TO 2/3 PARTIAL HEPATECT, Route [Carcinogen]: INTRAPERITONEAL, Route [Promoter]: ORAL, Species: RAT, Strain/Sex: F344/MALE): liver: hepatocellular adenoma or carcinoma
- outcome (Carcinogen: N-ETHYL-N-HYDROXYETHYLNITROSAMINE, 13147-25-6, Doses [Carcinogen]: 0.05% IN DRINKING WATER FOR 2 WK, Doses [Promoter]: 0, 1.2% IN DIET FOR 24 WK POST CARCINOGEN DOSE (STUDY DURATION: 27 WK), Route [Carcinogen]: ORAL, Species: RAT, Strain/Sex: F344/MALE): kidney: renal cell tumor
- outcome (Carcinogen: N-NITROSODIETHYLAMINE, 55-18-5, Doses [Carcinogen]: 5 UG/G BW ONCE AT 15 D OF AGE, Doses [Promoter]: 0, 12000 PPM IN DIET BEGINNING AT 4 WK OF AGE AND CONTINUING FOR DURATION OF STUDY (STUDY DURATION: 28 WK), Route [Carcinogen]: INTRAPERITONEAL, Route [Promoter]: ORAL, Species: MOUSE, Strain/Sex: C3H/HENCR/FEMALE): liver: hepatocellular adenoma
- outcome (Carcinogen: N-NITROSODIETHYLAMINE, 55-18-5, Doses [Carcinogen]: 5 UG/G BW ONCE AT 15 D OF AGE, Doses [Promoter]: 0, 12000 PPM IN DIET BEGINNING AT 4 WK OF AGE AND CONTINUING FOR DURATION OF STUDY (STUDY DURATION: 28 WK), Route [Carcinogen]: INTRAPERITONEAL, Route [Promoter]: ORAL, Species: MOUSE, Strain/Sex: C3H/HENCR/MALE): liver: hepatocellular adenoma
- outcome (Carcinogen: N-NITROSODIETHYLAMINE, 7119-92-8, Doses [Carcinogen]: 80 MG/KG ONCE, Doses [Promoter]: 0, 3000 PPM IN DIET BEGINNING 1 WK POST CARCINOGEN DOSE AND CONTINUING FOR 168 D (STUDY DURATION: 259 D), Route [Carcinogen]: INTRAPERITONEAL, Route [Promoter]: ORAL, Species: MOUSE, Strain/Sex: B6C3F1/MALE): liver: hepatocellular adenoma
